From US8648205B2, “Metal complexes of N-heterocyclic carbenes” (The University of Akron, priority 2003, dated 2014)
≈ marks a conversion by molar mass, not a printed value. Like-named read-outs stand apart in the source and are kept apart here.

Tests used:
[1] = test system: S. aureus (ATCC 6538); assay: MIC test in LB broth comparing AgNO3 and complex 106; assay type: cell-based; design: key: +=growth; −=no growth
[2] = test system: Escherichia coli
[3] = test system: E. coli (ATCC 8739); assay: MIC test in LB broth comparing AgNO3 and complex 106; assay type: cell-based; design: key: +=growth; −=no growth
[4] = test system: Staphylococcus aureus; settings: Day 1
[5] = test system: P. aeruginosa (ATCC 9027); assay: MIC test in LB broth comparing AgNO3 and complex 106; assay type: cell-based; design: key: +=growth; −=no growth
[6] = test system: Staphylococcus aureus; assay type: cell-based; settings: 0.5% solution, 20 μL on 6 mm filter paper disc, over night
Method: (§1) In this test, a filter paper disc of 6 mm diameter was soaked with 20 μL of a silver compound of known concentration, and placed over a lawn of an organism in the agar plate. The diameter of the area in which growth of the organism is inhibited by the test solution was measured after an over night incubation as a measure of the relative antimicrobial activity of the silver compounds. The test organisms were Escherichia coli, Staphylococcus aureus, and Pseudomonas aeruginosa.

[7] = test system: Escherichia coli; assay type: cell-based; settings: 0.5% solution, 20 μL on 6 mm filter paper disc, over night
Method: as §1

[8] = test system: Pseudomonas aeruginosa; assay type: cell-based; settings: 0.5% solution, 20 μL on 6 mm filter paper disc, over night
Method: as §1

[9] = test system: Pseudomonas aeruginosa
[10] = test system: Alcaligenes xylosoxidans; assay: Efficacy data MIC and MBC (Table 7); assay type: cell-based
[11] = test system: Yersinia pestis; assay: microbe, parasite or virus in culture; assay type: cell-based
[12] = test system: Stenotrophomonas maltophilia; assay: Efficacy data MIC and MBC (Table 7); assay type: cell-based; settings: isolate SM AH08
[13] = test system: Escherichia coli; assay: Efficacy data MIC and MBC (Table 7); assay type: cell-based
[14] = test system: Methicillin resistant Staphylococcus aureus (MRSA); assay: Efficacy data MIC and MBC (Table 7); assay type: cell-based
[15] = test system: Pseudomonas aeruginosa; assay: Efficacy data MIC and MBC (Table 7); assay type: cell-based
[16] = solubility; settings: 37: bromide salt; 20a, 20b: bromide salts
[17] = test system: Escherichia coli, Staphylococcus aureus, and Pseudomonas aeruginosa; assay: agar plates overlay method, summary of Table 2; assay type: cell-based
Method: as §1, with “The usefulness of the compounds represented by Formulas 103 and 55 as antimicrobial agents was evaluated. In” for “In”

[18] = stability (air, light, water, chloride, storage); settings: 37: bromide salt; 20a, 20b: bromide salts
[19] = Day 1, 1DF: AgNO3 1731.18, 106 1675.74 μg/mL
[20] = Day 1, 2DF: AgNO3 865.59, 106 837.87 μg/mL
[21] = Day 1, 3DF: AgNO3 432.79, 106 418.94 μg/mL
[22] = Day 1, 4DF: AgNO3 216.40, 106 209.47 μg/mL
[23] = Day 1, undiluted: AgNO3 0.50 wt/V % (3462.35 μg/mL), 106 1.38 wt/V % (3341.48 μg/mL)
[24] = Day 2, 1DF: AgNO3 1731.18, 106 1675.74 μg/mL
[25] = Day 2, 2DF: AgNO3 865.59, 106 837.87 μg/mL
[26] = Day 2, 3DF: AgNO3 432.79, 106 418.94 μg/mL
[27] = Day 2, 4DF: AgNO3 216.40, 106 209.47 μg/mL
[28] = Day 2, undiluted: AgNO3 0.50 wt/V % (3462.35 μg/mL), 106 1.38 wt/V % (3341.48 μg/mL)
[29] = Day 1, supernatant undiluted (Ag: 103 1186, 105 1125, AgN03 3176)
[30] = Day 2, supernatant undiluted (Ag: 103 1186, 105 1125, AgN03 3176)

## silver nitrate [AgNO3, reference compound]
[1]; [19]
  growth / no growth: −
[1]; [20]
  growth / no growth: −
[1]; [21]
  growth / no growth: −
[1]; [22]
  growth / no growth: −
[1]; [23]
  growth / no growth: −
[1]; [24]
  growth / no growth: −
[1]; [25]
  growth / no growth: −
[1]; [26]
  growth / no growth: −
[1]; [27]
  growth / no growth: +
[1]; [28]
  growth / no growth: −
[2]; [29]
  growth(+) or no growth(−): −
[2]; Day 1, supernatant x 1DF
  growth(+) or no growth(−): +
[2]; Day 1, supernatant x 2DF
  growth(+) or no growth(−): +
[2]; Day 1, supernatant x 3DF
  growth(+) or no growth(−): +
[2]; Day 1, supernatant x 4DF
  growth(+) or no growth(−): +
[2]; [30]
  growth(+) or no growth(−): +
[3]; [19]
  growth / no growth: −
[3]; [20]
  growth / no growth: −
[3]; [21]
  growth / no growth: −
[3]; [22]
  growth / no growth: −
[3]; [23]
  growth / no growth: −
[3]; [24]
  growth / no growth: −
[3]; [25]
  growth / no growth: −
[3]; [26]
  growth / no growth: −
[3]; [27]
  growth / no growth: +
[3]; [28]
  growth / no growth: −
[4]; supernatant undiluted (Ag: 103 1186, 105 1125, AgN03 3176)
  growth(+) or no growth(−): +
[4]; supernatant x 1DF
  growth(+) or no growth(−): +
[4]; supernatant x 2DF
  growth(+) or no growth(−): +
[4]; supernatant x 3DF
  growth(+) or no growth(−): +
[4]; supernatant x 4DF
  growth(+) or no growth(−): +
[5]; [19]
  growth / no growth: −
[5]; [20]
  growth / no growth: −
[5]; [21]
  growth / no growth: −
[5]; [22]
  growth / no growth: −
[5]; [23]
  growth / no growth: −
[5]; [24]
  growth / no growth: −
[5]; [25]
  growth / no growth: −
[5]; [26]
  growth / no growth: −
[5]; [27]
  growth / no growth: −
[5]; [28]
  growth / no growth: −
[6]
  Diameter of Inhibited Area: 10.88 mm
[7]
  Diameter of Inhibited Area: 11.38 mm
[8]
  Diameter of Inhibited Area: 11 mm
[9]; [29]
  growth(+) or no growth(−): −
[9]; Day 1, supernatant x 1DF
  growth(+) or no growth(−): +
[9]; Day 1, supernatant x 2DF
  growth(+) or no growth(−): +
[9]; Day 1, supernatant x 3DF
  growth(+) or no growth(−): +
[9]; Day 1, supernatant x 4DF
  growth(+) or no growth(−): +
[9]; [30]
  growth(+) or no growth(−): +

## CC(=O)[O][Ag][c]1n(C)c2c(=O)n(C)c(=O)n(C)c2[n+]1C [SCC1]
[10]; isolate AX 22
  MBC: 2 µg/mL
  MIC: 0.5 µg/mL
[10]; isolate AX RE05
  MBC: 8 µg/mL
  MIC: 4 µg/mL
[11]; isolate YP1-1CO92-LCR-
  MBC: 1 µg/mL
  MIC: 0.5 µg/mL
[12]
  MBC: 8 µg/mL
  MIC: 4 µg/mL
[13]; isolate J53
  MBC: 1 µg/mL
  MIC: 1 µg/mL
[13]; isolate J53 + pMG101
  MBC: >20 µg/mL
  MIC: >20 µg/mL
[14]; isolate SA EH06
  MBC: 20 µg/mL
  MIC: 6 µg/mL
[14]; isolate SA LL06
  MBC: 10 µg/mL
  MIC: 8 µg/mL
[15]; isolate PA 01-V
  MBC: 2 µg/mL
  MIC: 1 µg/mL
[15]; isolate PA HP3
  MBC: 8 µg/mL
  MIC: 4 µg/mL
[15]; isolate PA LF05
  MBC: 1 µg/mL
  MIC: 1 µg/mL
[15]; isolate PA M57-15
  MBC: 4 µg/mL
  MIC: 2 µg/mL
[15]; isolate PA RR05
  MBC: 1 µg/mL
  MIC: 0.5 µg/mL

## CC(C)Cc1ccc(C(C)C(=O)[O][Ag][c]2n(C)c3c(=O)n(C)c(=O)n(C)c3[n+]2C)cc1 (stereo not drawn) [SCC1-IBU]
[10]; isolate AX 22
  MBC: 2 µg/mL
  MIC: 0.5 µg/mL
[10]; isolate AX RE05
  MBC: 2 µg/mL
  MIC: 1 µg/mL
[11]; isolate YP1-1CO92-LCR-
  MBC: 2 µg/mL
  MIC: 0.5 µg/mL
[12]
  MBC: 2 µg/mL
  MIC: 1 µg/mL
[13]; isolate J53
  MBC: 0.5 µg/mL
  MIC: 0.5 µg/mL
[13]; isolate J53 + pMG101
  MBC: >20 µg/mL
  MIC: >20 µg/mL
[14]; isolate SA EH06
  MBC: 4 µg/mL
  MIC: 2 µg/mL
[14]; isolate SA LL06
  MBC: 6 µg/mL
  MIC: 2 µg/mL
[15]; isolate PA 01-V
  MBC: 6 µg/mL
  MIC: 2 µg/mL
[15]; isolate PA HP3
  MBC: 2 µg/mL
  MIC: 0.25 µg/mL
[15]; isolate PA LF05
  MBC: 1 µg/mL
  MIC: 1 µg/mL
[15]; isolate PA M57-15
  MBC: 2 µg/mL
  MIC: 1 µg/mL
[15]; isolate PA RR05
  MBC: 2 µg/mL
  MIC: 0.25 µg/mL

## OCCN1C=CN(CN2C=CN(CCO)C2)C1 [Formula 13]
[16]
  solubility in water / aqueous media: water soluble

## OCCN1C=CN(Cc2cccc(CN3C=CN(CCO)C3)n2)C1 [Compound 101]
[17]
  antimicrobial properties (Table 2 summary): no antimicrobial activity
[6]
  Diameter of Inhibited Area: 6 mm
[7]
  Diameter of Inhibited Area: 6 mm
[8]
  Diameter of Inhibited Area: 6 mm

## OCCCN1C=CN(Cc2cccc(CN3C=CN(CCCO)C3)n2)C1 [Compound 102]
[17]
  antimicrobial properties (Table 2 summary): no antimicrobial activity
[6]
  Diameter of Inhibited Area: 6 mm
[7]
  Diameter of Inhibited Area: 6 mm
[8]
  Diameter of Inhibited Area: 6 mm

## CN1c2c(n(C)c(=O)n(C)c2=O)N(C)[CH]1[Ag][CH]1N(C)c2c(n(C)c(=O)n(C)c2=O)N1C (stereo not drawn) [Formula 97a]
[18]
  stability in water: stable in water for five days

## NC[C@H]1O[C@H](O[C@H]2[C@H](O)[C@@H](O[C@H]3O[C@H](CO)[C@@H](O)[C@H](N)[C@H]3O)[C@H](N)C[C@@H]2N)[C@H](N)C[C@@H]1O [Tobramycin, reference compound]
[10]; Achromobacter xylosoxidans, isolate AX RE05, read-out: MIC
  MIC: > 20 µg/mL
[10]; Achromobacter xylosoxidans, isolate AX 22, read-out: MBC
  MBC: > 20 µg/mL
[10]; Achromobacter xylosoxidans, isolate AX 22, read-out: MIC
  MIC: 20 µg/mL (≈ 42.8 µM)
[10]; isolate AX RE05
  MBC: >20 µg/mL
[11]; Yersinia pestis
  MBC: 0.25 µg/mL (≈ 0.535 µM)
  MIC: 0.25 µg/mL (≈ 0.535 µM)
[12]; Stenotrophomonas maltophilia, read-out: MBC
  MBC: 20 µg/mL (≈ 42.8 µM)
[12]; Stenotrophomonas maltophilia, read-out: MIC
  MIC: 8 µg/mL (≈ 17.1 µM)
[13]; Escherichia coli, isolate J53, read-out: MBC
  MBC: 1 µg/mL (≈ 2.14 µM)
[13]; Escherichia coli, isolate J53, read-out: MIC
  MIC: 1 µg/mL (≈ 2.14 µM)
[13]; isolate J53 + pMG101
  MBC: 1 µg/mL
  MIC: 1 µg/mL
[14]; Staphylococcus aureus, MRSA, isolate SA LL06, read-out: MBC
  MBC: > 20 µg/mL
[14]; Staphylococcus aureus, MRSA, isolate SA LL06, read-out: MIC
  MIC: > 20 µg/mL
[14]; isolate SA EH06
  MBC: >20 µg/mL
  MIC: >20 µg/mL
[15]; Pseudomonas aeruginosa, isolate PA 01-V, read-out: MBC
  MBC: > 20 µg/mL
[15]; Pseudomonas aeruginosa, isolate PA 01-V, read-out: MIC
  MIC: 15 µg/mL (≈ 32.1 µM)
[15]; Pseudomonas aeruginosa, isolate PA HP3, read-out: MBC
  MBC: 8 µg/mL (≈ 17.1 µM)
[15]; Pseudomonas aeruginosa, isolate PA HP3, read-out: MIC
  MIC: 4 µg/mL (≈ 8.56 µM)
[15]; Pseudomonas aeruginosa, isolate PA LF05, read-out: MBC
  MBC: 1 µg/mL (≈ 2.14 µM)
[15]; Pseudomonas aeruginosa, isolate PA LF05, read-out: MIC
  MIC: 0.5 µg/mL (≈ 1.07 µM)
[15]; Pseudomonas aeruginosa, isolate PA M57-15, read-out: MBC
  MBC: 1 µg/mL (≈ 2.14 µM)
[15]; Pseudomonas aeruginosa, isolate PA M57-15, read-out: MIC
  MIC: 0.5 µg/mL (≈ 1.07 µM)
[15]; Pseudomonas aeruginosa, isolate PA RR05, read-out: MBC
  MBC: 1 µg/mL (≈ 2.14 µM)
[15]; Pseudomonas aeruginosa, isolate PA RR05, read-out: MIC
  MIC: 0.5 µg/mL (≈ 1.07 µM)
